Test results from patent publication US20080300314A1, “Cooling Compounds” (Givaudan SA, priority 2003, published 2008).

How the values were obtained:
Format in all cases: in vivo, human
panelists [1] = assay: Panel taste test: concentration with cooling intensity similar or slightly higher than menthol at 2 ppm (Table 1); details: solution judged to have cooling intensity similar or slightly higher than menthol at 2 ppm; tasted by small panel
panelists [2] = assay: Panel taste test: longevity of cooling in the mouth (Table 1); details: solutions tasted at the chosen concentration; time until no cooling could be sensed in the mouth
Text: In a second experiment, the same panel was asked to taste the solutions at the chosen concentrations and to record the cooling intensity at regular time intervals until no cooling could be sensed in the mouth.

mouth = assay: Application in toothpaste; details: toothgel with 2.5 g per 100 g of a 2% solution in PG; teeth brushed, mouth rinsed with water
Text: [table] The materials are mixed in the toothgel, and a panelist's teeth are brushed using this toothgel. The mouth is rinsed with water and the water spit out. […] The cooling perception lasts for several hours.

panelists [3] = assay: Testing of compounds: panel tasting of aqueous solutions against menthol at 2 ppm (Table 2); details: for Concentration [ppm]: aqueous solution (compound dissolved in ethanol at 1% by weight, then dosed into water), cooling intensity similar to or slightly higher than menthol at 2 ppm; for Description: panel description of the aqueous solution at the concentration listed in Table 2, reference menthol 2 ppm
Text: A small group of panelists were asked to taste various aqueous solutions of compounds. The compounds were first dissolved in ethanol at 1% by weight and then dosed into water.

SMILES	Concentration [ppm] (panelists [3])	Description (panelists [3])	also measured
CC1CCC(C(C)C)C(C(=O)Nc2ccc(CC#N)cc2)C1 (centres unmarked) [Example 1, N-(4-cyanomethylphenyl) p-menthanecarboxamide]			Concentration (panelists [1]): 0.2 ppm; Longevity (panelists [2]): 93 min
CC(C)[C@@H]1CC[C@@H](C)C[C@H]1O [Example 1-Menthol, (1R, 2S, 5R)-2-isopropyl-5-methyl-cyclohexanol, reference compound]			Concentration (panelists [1]): 2.0 ppm; Longevity (panelists [2]): 35 min
CC1CCC(C(C)C)C(C(=O)Nc2ccc(S(N)(=O)=O)cc2)C1 (centres unmarked) [Example 2, N-(4-sulfamoylphenyl) p-menthanecarboxamide]			Cooling sensation felt in the mouth (mouth): intense cooling sensation; Duration of cooling perception (mouth): several hours
CC1CCC(C(C)C)C(C(=O)Nc2ccc(C#N)cc2)C1 (centres unmarked) [Example 3, N-(4-cyanophenyl) p-menthanecarboxamide]			Concentration (panelists [1]): 0.5 ppm; Longevity (panelists [2]): 90 min
CC(C)Oc1ccc(CNC(=O)[C@@H]2C[C@H](C)CC[C@H]2C(C)C)cc1 [Example 7, (1R,2S,5R)-N-(4-isopropoxybenzyl)-2-isopropyl-5-methylcyclohexanecarboxamide]	0.01 ppm		
COC(=O)c1ccc(NC(=O)[C@@H]2C[C@H](C)CC[C@H]2C(C)C)cc1OC [Example 9, methyl 4-((1R,2S,5R)-2-isopropyl-5-methylcyclohexane-carboxamido)-2-methoxybenzoate]	0.005 ppm		
COC(=O)c1ccc(NC(=O)[C@@H]2C[C@H](C)CC[C@H]2C(C)C)cc1 [Example 15, methyl 4-((1R,2S,5R)-2-isopropyl-5-methylcyclohexane-carboxamido)benzoate]	2 ppm	slightly cooling, flat cooling	
CCOC(=O)c1ccc(NC(=O)[C@@H]2C[C@H](C)CC[C@H]2C(C)C)cc1 [Example 16, ethyl 4-((1R,2S,5R)-2-isopropyl-5-methylcyclohexane-carboxamido)benzoate]	2 ppm	Cooling similar to menthol	
CC(C)[C@@H]1CC[C@@H](C)C[C@H]1C(=O)Nc1ccc(C=O)cc1 [Example 19, (1R,2S,5R)-N-(4-formylphenyl)-2-isopropyl-5-methylcyclo-hexanecarboxamide]	2 ppm	cooling builds and lingers	
CC(C)[C@@H]1CC[C@@H](C)C[C@H]1C(=O)Nc1ccc(C(=O)O)cc1 [Example 23, 4-((1R,2S,5R)-2-isopropyl-5-methylcyclohexane-carboxamido)benzoic acid]	2 ppm	slightly burning then cooling	
CC(C)[C@@H]1CC[C@@H](C)C[C@H]1C(=O)NCc1ccc(C(=O)O)cc1 [Example 24, 4-(((1R,2S,5R)-2-isopropyl-5-methylcyclohexane-carboxamido)methyl)benzoic acid]	2 ppm	little cooling, slightly refreshing	
CC(C)[C@@H]1CC[C@@H](C)C[C@H]1C(=O)NCc1ccc(C#N)cc1 [Example 25, (1R,2S,5R)-N-(4-cyanobenzyl)-2-isopropyl-5-methylcyclohexanecarboxamide]	2 ppm	good icy cooling, slightly astringent	
CC(C)[C@@H]1CC[C@@H](C)C[C@H]1C(=O)NCc1ccc(S(N)(=O)=O)cc1 [Example 27, (1R,2S,5R)-2-isopropyl-5-methyl-N-(4-sulfamoylbenzyl)-cyclohexanecarboxamide]	2 ppm		
CC(C)[C@@H]1CC[C@@H](C)C[C@H]1C(=O)NCc1ccc(C(=O)O)cc1 [Example 28, 4-(((1R,2S,5R)-2-isopropyl-5-methyl-cyclohexanecarboxamido)-methyl)benzoic acid]	2 ppm	strong cooling up front, peppery heat	
CCOC(=O)Cc1ccc(NC(=O)[C@@H]2C[C@H](C)CC[C@H]2C(C)C)cc1 [Example 29, ethyl 2-(4-((1R,2S,5R)-2-isopropyl-5-methylcyclohexane-carboxamido)phenyl)acetate]	2 ppm	icy, crisp cool on tongue	
CC(C)[C@@H]1CC[C@@H](C)C[C@H]1C(=O)Nc1ccccc1C#N [Example 30, (1R,2S,5R)-N-(2-cyanophenyl)-2-isopropyl-5-methylcyclohexane-carboxamide]	2 ppm	clean, slightly stronger than menthol	
CC(C)[C@@H]1CC[C@@H](C)CC1C(=O)Nc1cccc(C#N)c1 (stereo partly drawn) [Example 31, (2S,5R)-N-(3-cyanophenyl)-2-isopropyl-5-methylcyclohexane-carboxamide]	1 ppm	weak cooling, tingling, numbing on tongue,	
CC(C)[C@@H]1CC[C@@H](C)C[C@H]1C(=O)Nc1ccccc1C#N [Example 32]	2 ppm	mouthcoating, more cooling than menthol	
CCNC(=O)C1CC(C)CCC1C(C)C (centres unmarked) [N-ethyl p-menthanecarboxamide (WS-3), N-ethyl p-menthanecarboxamide, reference compound]			Concentration (panelists [1]): 1.5 ppm; Longevity (panelists [2]): 57 min
